PubChem BioAssay (NCI)
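Five compound concentrations were applied to cells in 96-well plates for 48 hours; endpoints were derived by simple linear interpolation of the resulting dose-response curve. Abbreviation: GI50, concentration required for 50% inhibition of growth. TGI is the concentration that stops growth completely.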

How the values were obtained:
Assay in all cases: inhibition of tumour cell growth, NCI panel, 48 h
HOP-92 NSCLC = test system: HOP-92 NSCLC
HT29 colon = test system: HT29 colon
SF-268 CNS = test system: SF-268 CNS
BT-549 breast = test system: BT-549 breast
SK-MEL-28 melanoma = test system: SK-MEL-28 melanoma
OVCAR-8 ovarian = test system: OVCAR-8 ovarian
RPMI-8226 leukemia = test system: RPMI-8226 leukemia
786-0 renal = test system: 786-0 renal
HOP-62 NSCLC = test system: HOP-62 NSCLC
NCI-H23 lung = test system: NCI-H23 lung
T-47D breast = test system: T-47D breast
UACC-62 melanoma = test system: UACC-62 melanoma
HCT-116 colon = test system: HCT-116 colon
PC-3 prostate = test system: PC-3 prostate
NCI-H522 lung = test system: NCI-H522 lung
CCRF-CEM leukemia = test system: CCRF-CEM leukemia
MALME-3M melanoma = test system: MALME-3M melanoma
OVCAR-5 ovarian = test system: OVCAR-5 ovarian
OVCAR-3 ovarian = test system: OVCAR-3 ovarian
KM12 colon = test system: KM12 colon
UACC-257 melanoma = test system: UACC-257 melanoma
RXF 393 renal = test system: RXF 393 renal
COLO 205 colon = test system: COLO 205 colon
ACHN renal = test system: ACHN renal
SF-295 CNS = test system: SF-295 CNS
SNB-19 CNS = test system: SNB-19 CNS
EKVX NSCLC = test system: EKVX NSCLC
NCI-H226 lung = test system: NCI-H226 lung
A498 renal = test system: A498 renal
TK-10 renal = test system: TK-10 renal
NCI/ADR-RES ovarian = test system: NCI/ADR-RES ovarian
MOLT-4 leukemia = test system: MOLT-4 leukemia
MCF7 breast = test system: MCF7 breast
IGROV1 ovarian = test system: IGROV1 ovarian
DU-145 prostate = test system: DU-145 prostate
SR leukemia = test system: SR leukemia
SF-539 CNS = test system: SF-539 CNS
A549 NSCLC = test system: A549 NSCLC
OVCAR-4 ovarian = test system: OVCAR-4 ovarian
LOX IMVI melanoma = test system: LOX IMVI melanoma
HS 578T breast = test system: HS 578T breast
K-562 leukemia = test system: K-562 leukemia
MDA-MB-468 breast = test system: MDA-MB-468 breast
HL-60(TB) leukemia = test system: HL-60(TB) leukemia
MDA-MB-435 = test system: MDA-MB-435
M14 melanoma = test system: M14 melanoma
SW-620 colon = test system: SW-620 colon
SN12C renal = test system: SN12C renal
HCT-15 colon = test system: HCT-15 colon
CAKI-1 renal = test system: CAKI-1 renal

## COc1cc2cc(C(=O)N3C[C@@H](CCl)c4c3cc(OC(=O)N3CCN(C)[C@@H]5CSSC[C@@H]53)c3ccccc43)[nH]c2c(OC)c1OC
HOP-92 NSCLC
  GI50: 238 nM
  TGI: 809 nM
HT29 colon
  GI50: 226 nM
  TGI: 37.3 µM
SF-268 CNS
  GI50: 175 nM
  TGI: 12.2 µM
BT-549 breast
  GI50: 165 nM
  TGI: 593 nM
SK-MEL-28 melanoma
  GI50: 261 nM
  TGI: 762 nM
OVCAR-8 ovarian
  GI50: 151 nM
  TGI: 2210 nM
RPMI-8226 leukemia
  GI50: 161 nM
  TGI: 569 nM
786-0 renal
  GI50: 197 nM
  TGI: 579 nM
HOP-62 NSCLC
  GI50: 205 nM
  TGI: 925 nM
NCI-H23 lung
  GI50: 45.4 nM
  TGI: 186 nM
T-47D breast
  GI50: 287 nM
  TGI: > 100 µM
UACC-62 melanoma
  GI50: 147 nM
  TGI: 665 nM
HCT-116 colon
  GI50: 187 nM
  TGI: > 100 µM
PC-3 prostate
  GI50: 358 nM
  TGI: 13.7 µM
NCI-H522 lung
  GI50: 146 nM
  TGI: 531 nM
CCRF-CEM leukemia
  GI50: 105 nM
  TGI: 1390 nM
MALME-3M melanoma
  GI50: 213 nM
  TGI: 719 nM
OVCAR-5 ovarian
  GI50: 284 nM
  TGI: 1400 nM
OVCAR-3 ovarian
  GI50: 489 nM
  TGI: 5.54 µM
KM12 colon
  GI50: 1100 nM
  TGI: 26.7 µM
UACC-257 melanoma
  GI50: 501 nM
  TGI: 2990 nM
RXF 393 renal
  GI50: 132 nM
  TGI: 273 nM
COLO 205 colon
  GI50: 328 nM
  TGI: 1640 nM
ACHN renal
  GI50: 28.2 nM
  TGI: 222 nM
SF-295 CNS
  GI50: 133 nM
  TGI: 474 nM
SNB-19 CNS
  GI50: 224 nM
  TGI: 6.41 µM
EKVX NSCLC
  GI50: 230 nM
  TGI: 1810 nM
NCI-H226 lung
  GI50: 1020 nM
  TGI: 7.85 µM
A498 renal
  GI50: 1230 nM
  TGI: 3.88 µM
TK-10 renal
  GI50: 1290 nM
  TGI: > 100 µM
NCI/ADR-RES ovarian
  GI50: 148 nM
  TGI: 613 nM
MOLT-4 leukemia
  GI50: 69.7 nM
  TGI: 1780 nM
MCF7 breast
  GI50: 28.1 nM
  TGI: 12.9 µM
IGROV1 ovarian
  GI50: 1530 nM
  TGI: > 100 µM
DU-145 prostate
  GI50: 62.6 nM
  TGI: > 100 µM
SR leukemia
  GI50: 37.3 nM
  TGI: 299 nM
SF-539 CNS
  GI50: 172 nM
  TGI: 477 nM
A549 NSCLC
  GI50: 180 nM
  TGI: > 100 µM
OVCAR-4 ovarian
  GI50: 1620 nM
  TGI: > 100 µM
LOX IMVI melanoma
  GI50: 165 nM
  TGI: 829 nM
HS 578T breast
  GI50: 2260 nM
  TGI: 7.04 µM
K-562 leukemia
  GI50: 397 nM
  TGI: > 100 µM
MDA-MB-468 breast
  GI50: 164 nM
  TGI: 392 nM
HL-60(TB) leukemia
  GI50: 52 nM
  TGI: 640 nM
MDA-MB-435
  GI50: 836 nM
  TGI: 2930 nM
M14 melanoma
  GI50: 251 nM
  TGI: 1060 nM
SW-620 colon
  GI50: 264 nM
  TGI: > 100 µM
SN12C renal
  GI50: 203 nM
  TGI: 31.7 µM
HCT-15 colon
  GI50: 247 nM
  TGI: 11.7 µM
CAKI-1 renal
  GI50: 248 nM
  TGI: > 100 µM
